Results as given in patent US20230143612A1 (Arbutus Biopharma Corporation, priority 2020, published 2023).

What follows are molecules tested against PD-L1 His protein / PD-1 Fc protein (Homo sapiens, UniProt Q9NZQ7) (assay: HTRF Assay (PD-1/PD-L1 interaction)). Details: PD-L1 His 6 nM, PD-1 Fc 6 nM.
Format: binding
In short: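 Compounds tested from 20 μM down to 0.001 μM (3-fold) against 6 nM PD-L1 His and 6 nM PD-1 Fc, 15 min room temperature incubation. Detection after 1 h at room temperature with Tb cryptate anti-6HIS and XL665 anti-human IgG reagents (mixture at 0.35 nM and 6.7 nM), HTRF signal.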

PD-L1 His protein / PD-1 Fc protein, sequence (Q9NZQ7 19-238 limits assumed): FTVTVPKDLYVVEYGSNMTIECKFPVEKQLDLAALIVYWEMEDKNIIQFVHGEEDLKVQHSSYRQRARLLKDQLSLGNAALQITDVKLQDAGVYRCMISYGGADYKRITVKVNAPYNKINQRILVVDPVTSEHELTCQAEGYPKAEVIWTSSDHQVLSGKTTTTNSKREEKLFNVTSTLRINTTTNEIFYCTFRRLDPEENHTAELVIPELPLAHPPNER

Structure (SMILES)	IC50 [nM]
COc1nc(-c2cccc(-c3cccc(-c4cn5cc(CNCCO)ccc5n4)c3Cl)c2Cl)ccc1CNCCO [Example 100, 2-(((2-(2,2′-Dichloro-3′-(5-(((2-hydroxyethyl)amino)methyl)-6-methoxypyridin-2-yl)-[1,1′-biphenyl]-3-yl)imidazo[1,2-a]pyridin-6-yl)methyl)amino)ethan-1-ol]	4.3
COc1nc(-c2cccc(-c3cccc(-c4ccc5c(n4)c(Cl)c(CNC[C@@H]4CCC(=O)N4)n5C)c3Cl)c2Cl)ccc1CNC[C@@H]1CCC(=O)N1 [Example 366, (S)-5-((((3-Chloro-5-(2,2′-dichloro-3′-(6-methoxy-5-(((((S)-5-oxopyrrolidin-2-yl)methyl)-amino)methyl)-pyridin-2-yl)-[1,1′-biphenyl]-3-yl)-1-methyl-1H-pyrrolo[3,2-b]pyridin-2-yl)methyl)amino)-methyl)-pyrrolidin-2-one]	1.5
Cc1c(COc2cc(OCc3cncc(C#N)c3)c(CN[C@@](C)(CO)C(=O)O)cc2Cl)cccc1-c1cccc(-c2ccn3c(=O)c(CN[C@@](C)(CO)C(=O)O)cnc3c2)c1C [Example 7, (S)-2-(((8-(3′-((4-((((S)-2-Carboxy-1-hydroxypropan-2-yl)amino)methyl)-2-chloro-5-((5-cyanopyridin-3-yl)methoxy)phenoxy)methyl)-2,2′-dimethyl-[1,1′-biphenyl]-3-yl)-4-oxo-4H-pyrido[1,2-a]pyrimidin-3-yl)methyl)amino)-3-hydroxy-2-methylpropanoic acid]	0.2
Cc1c(-c2ccc3c(c2)CC(N)C3)cccc1-c1cccc(-c2ccn3c(=O)c(CNC[C@@H]4CCC(=O)N4)cnc3c2)c1C (mixture of isomers) [Example 41, 8-(3′-(2-Amino-2,3-dihydro-1H-inden-5-yl)-2,2′-dimethyl-[1,1′-biphenyl]-3-yl)-3-(((((S)-5-oxopyrrolidin-2-yl)methyl)amino)methyl)-4H-pyrido[1,2-a]pyrimidin-4-one]	93
Cc1c(-c2ccn3c(=O)c(CNC[C@@H]4CCC(=O)N4)cnc3c2)cccc1-c1cccc(-c2ccc3c(c2)CC(N)C3)c1Cl (mixture of isomers) [Example 40, 8-(3′-(2-Amino-2,3-dihydro-1H-inden-5-yl)-2′-chloro-2-methyl-[1,1′-biphenyl]-3-yl)-3-(((((S)-5-oxopyrrolidin-2-yl)methyl)amino)methyl)-4H-pyrido[1,2-a]pyrimidin-4-one]	61
COc1cc(-c2cccc(-c3cccc(-c4ccc(CNC[C@@H]5CCC(=O)N5)c(OC)n4)c3Cl)c2Cl)cc2c1CN(C[C@@H]1CCC(=O)N1)CC2 [Example 155, (S)-5-((6-(2,2′-Dichloro-3′-(6-methoxy-5-(((((S)-5-oxopyrrolidin-2-yl)methyl)amino)-methyl)pyridin-2-yl)-[1,1′-biphenyl]-3-yl)-8-methoxy-3,4-dihydroisoquinolin-2(1H)-yl)methyl)pyrrolidin-2-one]	0.4
COc1nc(-c2cccc(-c3cccc(-c4ccc5c(n4)N(C)CCC5NC[C@@H]4CCC(=O)N4)c3Cl)c2Cl)cnc1CNC[C@@H]1CCC(=O)N1 (mixture of isomers) [Example 56, (5S)-5-(((7-(2,2′-Dichloro-3′-(6-methoxy-5-(((((S)-5-oxopyrrolidin-2-yl)methyl)amino)methyl)pyrazin-2-yl)-[1,1′-biphenyl]-3-yl)-1-methyl-1,2,3,4-tetrahydro-1,8-naphthyridin-4-yl)amino)methyl)pyrrolidin-2-one]	0.7
Cc1c(-c2ccn3c(=O)c(CNC4CNC(=O)C4)cnc3c2)cccc1-c1cccc(-c2ccc(CNC[C@@H]3CCC(=O)N3)c(F)n2)c1Cl (stereo partly drawn) [Example 62, 8-(2′-Chloro-3′-(6-fluoro-5-(((((S)-5-oxopyrrolidin-2-yl)methyl)amino)methyl)pyridin-2-yl)-2-methyl-[1,1′-biphenyl]-3-yl)-3-(((5-oxopyrrolidin-3-yl)amino)methyl)-4H-pyrido[1,2-a]pyrimidin-4-one]	19
COc1nc(-c2cccc(-c3cccc(-c4cnc5c(CNC[C@@H]6CCC(=O)N6)c(C)nn5c4)c3Cl)c2Cl)ccc1CNC[C@@H]1CCC(=O)N1 [Example 420, (S)-5-((((6-(2,2′-Dichloro-3′-(2-methyl-3-(((((S)-5-oxopyrrolidin-2-yl)methyl)amino)methyl)pyrazolo[1,5-a]pyrimidin-6-yl)-[1,1′-biphenyl]-3-yl)-2-methoxypyridin-3-yl)methyl)amino)methyl)pyrrolidin-2-one]	0.6
COc1nc(-c2cccc(-c3cccc(-c4ccc5c(n4)CCCC5NC[C@@H]4CCC(=O)N4)c3Cl)c2Cl)ccc1CNC[C@@H]1CCC(=O)N1 (mixture of isomers) [Example 235, (5S)-5-((((6-(2,2′-Dichloro-3′-(5-((((S)-5-oxopyrrolidin-2-yl)methyl)amino)-5,6,7,8-tetrahydroquinolin-2-yl)-[1,1′-biphenyl]-3-yl)-2-methoxypyridin-3-yl)methyl)amino)methyl)pyrrolidin-2-one]	1
COc1nc(-c2cccc(-c3cccc(-c4cc5c(=O)n(C)c(CNC6CC7(CCC(=O)N7)C6)nn5c4)c3Cl)c2Cl)ccc1CNC[C@@H]1CCC(=O)N1 (stereo partly drawn) [Example 449, 6-[2-Chloro-3-[2-chloro-3-[6-methoxy-5-[[[(2S)-5-oxopyrrolidin-2-yl]methylamino]methyl]-2-pyridyl]phenyl]phenyl]-3-methyl-2-[[(6-oxo-5-azaspiro[3.4]octan-2-yl)amino]methyl] pyrrolo[2,1-f][1,2,4]triazin-4-one]	450
COc1nc(-c2cccc(-c3cccc(-c4cc5ncc(CNC[C@@H]6CCC(=O)N6)cc5cn4)c3Cl)c2Cl)ccc1CNC[C@@H]1CCC(=O)N1 [Example 258, (S)-5-((((6-(2,2′-Dichloro-3′-(3-(((((S)-5-oxopyrrolidin-2-yl)methyl)amino)methyl)-1,6-naphthyridin-7-yl)-[1,1′-biphenyl]-3-yl)-2-methoxypyridin-3-yl)methyl)amino)methyl) pyrrolidin-2-one]	0.1
COc1nc(-c2cccc(-c3cccc(-c4ccn5c(=O)c(CN(C)[C@@H](C)C(=O)O)cnc5c4)c3Cl)c2Cl)ccc1CNC[C@@H]1CCC(=O)N1 [Example 190, N-((8-(2,2′-Dichloro-3′-(6-methoxy-5-(((((S)-5-oxopyrrolidin-2-yl)methyl)amino)methyl)pyridin-2-yl)-[1,1′-biphenyl]-3-yl)-4-oxo-4H-pyrido[1,2-a]pyrimidin-3-yl)methyl)-N-methyl-L-alanine]	0.1
COc1nc(-c2cccc(-c3cccc(-c4ccn5c(=O)c(CNC[C@@H]6CCC(=O)N6)cnc5c4)c3Cl)c2Cl)ccc1CN[C@H]1CCOC[C@@H]1O [Example 174, 8-(2,2′-Dichloro-3′-(5-((((3R,4S)-3-hydroxytetrahydro-2H-pyran-4-yl)amino)methyl)-6-methoxypyridin-2-yl)-[1,1′-biphenyl]-3-yl)-3-(((((S)-5-oxopyrrolidin-2-yl)methyl)amino)methyl)-4H-pyrido[1,2-a]pyrimidin-4-one]	0.8
COc1nc(-c2cccc(-c3cccc(-c4cc5c(=O)n(C)c(CN6CC(C(C)(C)O)C6)nn5c4)c3Cl)c2Cl)ccc1CNC[C@@H]1CCC(=O)N1 [Example 461, 6-[2-Chloro-3-[2-chloro-3-[6-methoxy-5-[[[(2S)-5-oxopyrrolidin-2-yl]methylamino]methyl]-2-pyridyl]phenyl]phenyl]-2-[[3-(1-hydroxy-1-methyl-ethyl)azetidin-1-yl]methyl]-3-methyl-pyrrolo[2,1-f][1,2,4]triazin-4-one]	13
COC(=O)C1CN(Cc2c(C)nc3cc(-c4cccc(-c5cccc(-c6ccc(CNC[C@@H]7CCC(=O)N7)c(OC)n6)c5Cl)c4Cl)ccn3c2=O)C1 [Example 296, (S)-Methyl 1-((8-(2,2′-dichloro-3′-(6-methoxy-5-((((5-oxopyrrolidin-2-yl)methyl)amino)methyl)pyridin-2-yl)-[1,1′-biphenyl]-3-yl)-2-methyl-4-oxo-4H-pyrido[1,2-a]pyrimidin-3-yl)methyl)azetidine-3-carboxylate]	0.5
COc1nc(-c2cccc(-c3cccc(-c4cc5c(=O)n(C)c(CNCCCF)nn5c4)c3Cl)c2Cl)ccc1CNC[C@@H]1CCC(=O)N1 [Example 437, (S)-6-(2,2′-Dichloro-3′-(6-methoxy-5-((((5-oxopyrrolidin-2-yl)methyl)amino)methyl)pyridin-2-yl)-[1,1′-biphenyl]-3-yl)-2-(((3-fluoropropyl)amino)methyl)-3-methylpyrrolo[2,1-f][1,2,4]triazin-4(3H)-one]	52
COc1cc(-c2cccc(-c3cccc(-c4ccn5c(=O)c(CNC[C@@H]6CCC(=O)N6)cnc5c4)c3Cl)c2Cl)nc(Cl)c1CNC[C@@H]1CCC(=O)N1 [Example 431, 8-(2,2′-Dichloro-3′-(6-chloro-4-methoxy-5-(((((S)-5-oxopyrrolidin-2-yl)methyl)-amino)-methyl)pyridin-2-yl)-[1,1′-biphenyl]-3-yl)-3-(((((S)-5-oxopyrrolidin-2-yl)methyl)amino)methyl)-4H-pyrido[1,2-a]pyrimidin-4-one]	180
COc1nc(-c2cccc(-c3cccc(-c4ccn5c(=O)c(CNC[C@@H]6CCC(=O)N6)cnc5c4)c3Cl)c2Cl)ccc1CN1CC(C)(O)C1 [Example 157, (S)-8-(2,2′-Dichloro-3′-(5-((3-hydroxy-3-methylazetidin-1-yl)methyl)-6-methoxypyridin-2-yl)-[1,1′-biphenyl]-3-yl)-3-((((5-oxopyrrolidin-2-yl)methyl)amino)methyl)-4H-pyrido[1,2-a]pyrimidin-4-one]	1.6
COc1nc(-c2cccc(-c3cccc(-c4cc5c(cn4)C(=O)N(CCNC[C@@H]4CCC(=O)N4)C5)c3Cl)c2Cl)ccc1CNC[C@@H]1CCC(=O)N1 [Example 467, 6-(2,2′-Dichloro-3′-(6-methoxy-5-(((((S)-5-oxopyrrolidin-2-yl)methyl)amino)methyl)pyridin-2-yl)-[1,1′-biphenyl]-3-yl)-2-(2-((((S)-5-oxopyrrolidin-2-yl)methyl)amino)ethyl)-1H-pyrrolo[3,4-c]pyridin-3(2H)-one]	0.1
